Assay results: patent publication US10934274B2, “Quinoline derivatives as TAM RTK inhibitors” (Qurient Co., Ltd., priority 2015, dated 2021)

Key:
Met = target: T1, Met (Homo sapiens, UniProt P08581); test: LanthaScreen Eu kinase binding assay, Met; conditions: Tracer 236, read-out: cMet kinase binding activity (Kd)
T1 construct: purchased Life Technologies

Mer = target: T2, Mer (Homo sapiens, UniProt Q12866); test: LanthaScreen Eu kinase binding assay, Mer; conditions: Tracer 236
T2 construct: purchased Life Technologies
T2 sequence (Q12866 21-999): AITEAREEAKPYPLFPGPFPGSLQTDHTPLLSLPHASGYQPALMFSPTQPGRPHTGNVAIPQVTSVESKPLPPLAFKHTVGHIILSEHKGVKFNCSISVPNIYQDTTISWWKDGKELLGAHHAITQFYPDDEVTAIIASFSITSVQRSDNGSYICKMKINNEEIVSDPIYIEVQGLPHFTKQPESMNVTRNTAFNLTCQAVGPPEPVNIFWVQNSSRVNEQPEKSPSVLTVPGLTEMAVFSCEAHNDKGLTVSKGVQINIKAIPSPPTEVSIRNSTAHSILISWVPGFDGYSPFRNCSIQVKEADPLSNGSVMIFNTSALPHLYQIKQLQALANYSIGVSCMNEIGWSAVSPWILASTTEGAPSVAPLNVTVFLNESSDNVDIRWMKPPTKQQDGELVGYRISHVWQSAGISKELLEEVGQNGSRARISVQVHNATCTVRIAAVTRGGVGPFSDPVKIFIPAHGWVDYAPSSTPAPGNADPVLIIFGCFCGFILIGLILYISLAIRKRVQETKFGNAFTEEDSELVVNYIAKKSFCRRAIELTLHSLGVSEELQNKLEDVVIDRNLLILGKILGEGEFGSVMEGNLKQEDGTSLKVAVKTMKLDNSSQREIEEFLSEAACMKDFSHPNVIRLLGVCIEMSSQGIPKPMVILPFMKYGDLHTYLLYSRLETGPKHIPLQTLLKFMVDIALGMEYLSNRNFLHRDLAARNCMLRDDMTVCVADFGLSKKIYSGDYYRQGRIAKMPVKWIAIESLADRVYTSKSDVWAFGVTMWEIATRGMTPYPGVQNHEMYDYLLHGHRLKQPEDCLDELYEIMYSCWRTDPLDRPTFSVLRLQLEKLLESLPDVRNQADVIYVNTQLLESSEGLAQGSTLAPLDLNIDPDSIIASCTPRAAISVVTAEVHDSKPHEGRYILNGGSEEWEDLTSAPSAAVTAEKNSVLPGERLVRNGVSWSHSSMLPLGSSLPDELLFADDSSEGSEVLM

Axl = target: T3, Axl (Homo sapiens, UniProt P30530); test: LanthaScreen Eu kinase binding assay, Axl; conditions: Tracer 236
T3 construct: purchased Life Technologies
T3 sequence (P30530 26-894): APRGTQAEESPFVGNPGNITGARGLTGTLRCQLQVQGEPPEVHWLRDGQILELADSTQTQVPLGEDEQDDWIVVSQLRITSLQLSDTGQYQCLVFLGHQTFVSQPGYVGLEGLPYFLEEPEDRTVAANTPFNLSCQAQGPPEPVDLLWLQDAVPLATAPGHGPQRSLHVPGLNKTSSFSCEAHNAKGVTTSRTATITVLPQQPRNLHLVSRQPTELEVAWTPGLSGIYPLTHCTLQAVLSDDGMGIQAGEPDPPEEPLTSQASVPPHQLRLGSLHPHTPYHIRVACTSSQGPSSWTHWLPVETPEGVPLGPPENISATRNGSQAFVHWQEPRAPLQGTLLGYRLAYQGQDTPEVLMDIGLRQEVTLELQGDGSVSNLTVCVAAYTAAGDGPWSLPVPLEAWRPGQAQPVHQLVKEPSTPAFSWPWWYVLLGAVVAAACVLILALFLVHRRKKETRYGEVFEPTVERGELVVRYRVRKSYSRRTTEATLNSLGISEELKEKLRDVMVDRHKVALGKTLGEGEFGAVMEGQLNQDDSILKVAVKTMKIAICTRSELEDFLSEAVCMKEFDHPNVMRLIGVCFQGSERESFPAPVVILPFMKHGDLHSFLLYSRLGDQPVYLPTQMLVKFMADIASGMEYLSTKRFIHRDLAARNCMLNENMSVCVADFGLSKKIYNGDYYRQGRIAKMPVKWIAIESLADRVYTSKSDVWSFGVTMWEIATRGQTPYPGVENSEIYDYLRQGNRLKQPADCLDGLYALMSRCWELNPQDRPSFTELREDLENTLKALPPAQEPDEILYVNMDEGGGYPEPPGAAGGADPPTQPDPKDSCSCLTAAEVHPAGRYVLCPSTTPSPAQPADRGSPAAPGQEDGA

T1 sequence (P08581 25-1390): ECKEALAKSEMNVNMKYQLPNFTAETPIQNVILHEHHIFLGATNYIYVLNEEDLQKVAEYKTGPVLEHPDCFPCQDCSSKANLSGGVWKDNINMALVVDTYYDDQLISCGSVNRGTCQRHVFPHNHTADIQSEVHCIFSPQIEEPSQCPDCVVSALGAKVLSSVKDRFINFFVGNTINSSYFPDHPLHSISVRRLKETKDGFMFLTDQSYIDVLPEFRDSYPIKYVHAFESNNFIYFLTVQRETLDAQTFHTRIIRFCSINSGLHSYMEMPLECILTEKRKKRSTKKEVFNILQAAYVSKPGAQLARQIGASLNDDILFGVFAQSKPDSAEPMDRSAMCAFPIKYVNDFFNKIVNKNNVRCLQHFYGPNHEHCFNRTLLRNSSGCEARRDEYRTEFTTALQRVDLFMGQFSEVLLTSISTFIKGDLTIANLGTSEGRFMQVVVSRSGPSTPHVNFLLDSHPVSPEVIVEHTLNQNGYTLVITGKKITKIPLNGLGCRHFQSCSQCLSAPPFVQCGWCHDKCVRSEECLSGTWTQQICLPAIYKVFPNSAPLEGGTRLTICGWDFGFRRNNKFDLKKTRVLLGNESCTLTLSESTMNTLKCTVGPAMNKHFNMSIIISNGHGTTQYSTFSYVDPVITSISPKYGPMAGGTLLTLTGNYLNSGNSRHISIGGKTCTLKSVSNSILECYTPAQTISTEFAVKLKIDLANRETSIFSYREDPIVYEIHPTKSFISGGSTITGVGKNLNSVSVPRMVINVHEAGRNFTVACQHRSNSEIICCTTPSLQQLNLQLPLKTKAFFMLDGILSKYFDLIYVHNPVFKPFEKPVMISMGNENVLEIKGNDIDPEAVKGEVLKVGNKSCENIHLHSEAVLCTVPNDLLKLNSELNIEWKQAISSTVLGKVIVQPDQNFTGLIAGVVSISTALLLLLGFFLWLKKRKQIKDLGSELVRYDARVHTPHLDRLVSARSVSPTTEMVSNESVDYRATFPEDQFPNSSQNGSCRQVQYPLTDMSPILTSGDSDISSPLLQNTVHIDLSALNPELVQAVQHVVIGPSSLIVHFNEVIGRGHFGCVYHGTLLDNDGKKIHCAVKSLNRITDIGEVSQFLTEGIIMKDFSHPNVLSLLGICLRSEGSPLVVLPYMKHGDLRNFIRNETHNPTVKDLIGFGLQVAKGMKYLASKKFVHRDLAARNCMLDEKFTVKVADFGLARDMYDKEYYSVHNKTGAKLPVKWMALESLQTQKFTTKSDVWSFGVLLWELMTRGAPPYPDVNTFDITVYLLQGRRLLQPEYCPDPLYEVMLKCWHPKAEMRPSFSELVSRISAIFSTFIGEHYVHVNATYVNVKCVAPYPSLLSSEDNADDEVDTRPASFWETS

## CCOc1cn(-c2ccc(OC(F)(F)F)cc2Cl)nc1C(=O)Nc1ccc(Oc2ccnc3cc(OC)c(OC)cc23)cc1F [Compound 192]
Met
  Kd: < 100 nM
Mer
  Kd: < 100 nM
Axl
  Kd: < 100 nM

## CCOc1cn(-c2cnccc2C(F)(F)F)nc1C(=O)Nc1ccc(Oc2ccnc3cc(OC)c(OC)cc23)cc1F [Compound 196]
Met
  Kd: < 100 nM
Mer
  Kd: < 100 nM
Axl
  Kd: < 100 nM

## CCOc1cn(-c2c(C)ccnc2C)nc1C(=O)Nc1ccc(Oc2ccnc3cc(OC)c(OC)cc23)cc1F [Compound 191]
Met
  Kd: < 100 nM
Mer
  Kd: < 100 nM
Axl
  Kd: < 100 nM

## CCOc1cn(-c2ccnc(O)c2)nc1C(=O)Nc1ccc(Oc2ccnc3cc(OC)c(OC)cc23)cn1 [Compound 7]
Met
  Kd: < 100 nM
Mer
  Kd: < 100 nM
Axl
  Kd: ≥ 1000 nM

## CCOc1cn(-c2cnccc2C)nc1C(=O)Nc1ccc(Oc2ccnc3cc(OC)c(OC)cc23)nn1 [Compound 210]
Met
  Kd: < 100 nM
Mer
  Kd: < 100 nM
Axl
  Kd: < 100 nM

## CCOc1cn(-c2cnccc2Cl)nc1C(=O)Nc1ccc(Oc2ccnc3cc(OC)c(OC)cc23)c(F)c1 [Compound 193]
Met
  Kd: < 100 nM
Mer
  Kd: < 100 nM
Axl
  Kd: < 100 nM

## CCOc1cn(-c2cncs2)nc1C(=O)Nc1ccc(Oc2ccnc3cc(OC)c(OC)cc23)cn1 [Compound 14]
Met
  Kd: < 100 nM
Mer
  Kd: < 100 nM
Axl
  Kd: < 100 nM

## CCOc1cn(-c2cnc(CO)nc2)nc1C(=O)Nc1ccc(Oc2ccnc3cc(OC)c(OC)cc23)cn1 [Compound 96]
Met
  Kd: ≥ 1000 nM
Mer
  Kd: < 100 nM
Axl
  Kd: < 100 nM

## CCOc1cn(-c2cnc(Cl)cn2)nc1C(=O)Nc1ccc(Oc2ccnc3cc(OC)c(OC)cc23)cn1 [Compound 169]
Met
  Kd: ≥ 1000 nM
Mer
  Kd: < 100 nM
Axl
  Kd: < 100 nM

## CCOc1cn(-c2cnccc2Cl)nc1C(=O)Nc1ccc(Oc2ccnc3cc(OC)c(OC)cc23)cn1 [Compound 183]
Met
  Kd: < 100 nM
Mer
  Kd: < 100 nM
Axl
  Kd: < 100 nM

## CCOc1cn(-c2c(C)cc(C)cc2C)nc1C(=O)Nc1ccc(Oc2ccnc3cc(OC)c(OC)cc23)cn1 [Compound 117]
Met
  Kd: < 100 nM
Mer
  Kd: < 100 nM
Axl
  Kd: < 100 nM

## CCOc1cn(-c2ccc(N)nc2)nc1C(=O)Nc1ccc(Oc2ccnc3cc(OC)c(OC)cc23)cn1 [Compound 6]
Met
  Kd: 100 to 1000 nM
Mer
  Kd: < 100 nM
Axl
  Kd: < 100 nM

## CCOc1cn(-c2cnccc2CO)nc1C(=O)Nc1ccc(Oc2ccnc3cc(OC)c(OC)cc23)cn1 [Compound 179]
Met
  Kd: < 100 nM
Mer
  Kd: < 100 nM
Axl
  Kd: < 100 nM

## CCOc1cn(-c2cnc(OC)nc2)nc1C(=O)Nc1ccc(Oc2ccnc3cc(OC)c(OC)cc23)cn1 [Compound 148]
Met
  Kd: < 100 nM
Mer
  Kd: < 100 nM
Axl
  Kd: < 100 nM

## CCOc1cn(-c2ccc(Cl)c(C(=O)N(C)C)c2)nc1C(=O)Nc1ccc(Oc2ccnc3cc(OC)c(OC)cc23)cn1 [Compound 129]
Met
  Kd: < 100 nM
Mer
  Kd: < 100 nM
Axl
  Kd: < 100 nM

## CCOc1cn(-c2ccc(F)cc2C)nc1C(=O)Nc1ccc(Oc2ccnc3cc(OC)c(OC)cc23)nn1 [Compound 97]
Met
  Kd: ≥ 1000 nM
Mer
  Kd: < 100 nM
Axl
  Kd: < 100 nM

## CCOc1cn(-c2nccnc2Cl)nc1C(=O)Nc1ccc(Oc2ccnc3cc(OC)c(OC)cc23)cc1F [Compound 190]
Met
  Kd: < 100 nM
Mer
  Kd: < 100 nM
Axl
  Kd: < 100 nM

## CCOc1cn(-c2cccnc2)nc1C(=O)Nc1ccc(Oc2ccnc3cc(OC(C)CC)c(OC)cc23)cn1 (stereo not drawn) [Compound 206]
Met
  Kd: ≥ 1000 nM
Mer
  Kd: < 100 nM
Axl
  Kd: < 100 nM

## CCOc1cn(-c2cncnc2C2CC2)nc1C(=O)Nc1ccc(Oc2ccnc3cc(OC)c(OC)cc23)cn1 [Compound 167]
Met
  Kd: < 100 nM
Mer
  Kd: < 100 nM
Axl
  Kd: < 100 nM

## CCOc1cn(-c2cnccc2CCO)nc1C(=O)Nc1ccc(Oc2ccnc3cc(OC)c(OC)cc23)cn1 [Compound 181]
Met
  Kd: < 100 nM
Mer
  Kd: < 100 nM
Axl
  Kd: < 100 nM

## CCOc1cn(-c2nccnc2C(C)(C)O)nc1C(=O)Nc1ccc(Oc2ccnc3cc(OC)c(OC)cc23)cn1 [Compound 200]
Met
  Kd: < 100 nM
Mer
  Kd: < 100 nM
Axl
  Kd: < 100 nM

## CCOc1cn(-c2cnccc2CO)nc1C(=O)Nc1ccc(Oc2ccnc3cc(OC)c(OC)cc23)c(F)c1 [Compound 207]
Met
  Kd: < 100 nM
Mer
  Kd: < 100 nM
Axl
  Kd: < 100 nM
